According to patent US20080090805A1, “CB-1 MODULATING COMPOUNDS AND THEIR USE” (ACADIA PHARMACEUTICALS INC., priority 2005, published 2008):

Molecular target: native CB1 receptors (Rattus norvegicus, UniProt P20272)
Assay: CB1 receptor rat binding assay ([3H]SR141716A, rat brain membranes)
Conditions: rat brain membranes, [3H]SR141716A; for Ki: read-out: Binding rat pKi (converted)

Chain of native CB1 receptors (P20272 whole entry): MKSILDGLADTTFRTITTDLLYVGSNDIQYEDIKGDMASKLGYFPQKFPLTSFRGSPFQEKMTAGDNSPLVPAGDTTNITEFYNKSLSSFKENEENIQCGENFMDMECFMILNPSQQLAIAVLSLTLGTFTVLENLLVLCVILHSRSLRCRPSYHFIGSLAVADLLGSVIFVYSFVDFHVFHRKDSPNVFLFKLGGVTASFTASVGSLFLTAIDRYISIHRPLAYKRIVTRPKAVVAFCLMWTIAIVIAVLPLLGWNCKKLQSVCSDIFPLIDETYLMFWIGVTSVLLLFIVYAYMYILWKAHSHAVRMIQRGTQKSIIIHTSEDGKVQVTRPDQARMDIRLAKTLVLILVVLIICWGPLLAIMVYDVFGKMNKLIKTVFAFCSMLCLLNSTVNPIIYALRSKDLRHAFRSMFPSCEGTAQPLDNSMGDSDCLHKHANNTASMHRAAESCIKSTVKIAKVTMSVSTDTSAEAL

| SMILES | Binding rat Inh % | Ki |
| --- | --- | --- |
| O=C(NCCc1cccnc1)c1ccc2c(c1)N=C(c1ccc(Cl)s1)c1ccccc1S2 [drawing 1466] | 98% | 7.94 nM |
| O=C(NNCC(F)(F)F)c1ccc2c(c1)N=C(c1cccc(Cl)c1)c1ccccc1S2 [drawing 1467] | 97% | 50.1 nM |
| COCCNC(=O)c1ccc2c(c1)N=C(c1cccc(F)c1)c1ccccc1S2 [drawing 1468] | 86% | 50.1 nM |
| O=C(NCc1ccccn1)c1ccc2c(c1)N=C(c1ccc(Br)cc1)c1ccccc1S2 [drawing 1469] | 71% | 50.1 nM |
| O=C(NCCc1ccccc1)c1ccc2c(c1)N=C(N1CCCCC1)c1ccccc1S2 [drawing 1470] | – | 63.1 nM |
| CC(NC(=O)c1ccc2c(c1)N=C(c1ccc(F)cc1)c1ccccc1S2)c1ccccc1 (stereo not drawn) [drawing 1471] | – | 7.94 nM |
| Cc1cccc(C2=Nc3cc(C(=O)NCC(C)C)ccc3Sc3ccccc32)n1 [drawing 1472] | 96% | 7.94 nM |
| O=C(NCCCC(F)(F)F)c1ccc2c(c1)N=C(c1ccccn1)c1ccccc1S2 [drawing 1473] | 92% | 7.94 nM |
| C[C@@H]1CCC[C@H](C)N1NC(=O)c1ccc2c(c1)N=C(c1ccc(Cl)cc1F)c1ccccc1S2 [drawing 1474] | 71% | 7.94 nM |
| O=C(NCCc1ccccn1)c1ccc2c(c1)N=C(c1cccc(Cl)c1)c1ccccc1S2 [drawing 1475] | 76% | 63.1 nM |
| CCOC(=O)c1ccc(C2=Nc3cc(C(=O)NCc4ccccn4)ccc3Sc3ccccc32)cc1 [drawing 1476] | −43% | 63.1 nM |
| Cc1ccsc1C1=Nc2cc(C(=O)NC(C)C)ccc2Sc2ccccc21 [drawing 1478] | 60% | 63.1 nM |
| CCCCNC(=O)c1ccc2c(c1)N=C(c1cccc(Cl)c1)c1ccccc1S2 [drawing 1479] | – | 7.94 nM |
| CCCCNC(=O)c1ccc2c(c1)N=C(c1ccc(Cl)s1)c1ccc(Cl)cc1S2 [drawing 1480] | 90% | 10 nM |
| Cc1ccc(CNC(=O)c2ccc3c(c2)N=C(c2cccc(F)c2)c2ccccc2S3)o1 [drawing 1481] | 88% | 10 nM |
| O=C(NCc1ccccc1Br)c1ccc2c(c1)N=C(c1ccccc1)c1ccccc1S2 [drawing 1483] | – | 63.1 nM |
| Clc1ccc(C2=Nc3cc(-c4ncc[nH]4)ccc3Sc3ccccc32)cc1 [drawing 1485] | 81% | 63.1 nM |
| NS(=O)(=O)c1ccc(CNC(=O)c2ccc3c(c2)N=C(c2ccc(Cl)cc2)c2ccccc2S3)cc1 [drawing 1486] | 66% | 63.1 nM |
| O=C(NN1CCCCC1)c1ccc2c(c1)N=C(c1cccc(Br)c1)c1ccccc1S2 [drawing 1487] | – | 10 nM |
| O=C(NNCC(F)(F)F)c1ccc2c(c1)N=C(c1ccc(Cl)cc1)c1ccccc1S2 [drawing 1488] | 70% | 10 nM |
| CCN(CCNC(=O)c1ccc2c(c1)N=C(c1ccc(Cl)cc1)c1ccccc1S2)c1ccccc1 [drawing 1489] | – | 10 nM |
| CC(C)CNC(=O)c1ccc2c(c1)N=C(c1cccc(F)c1)c1ccccc1S2 [drawing 1490] | 87% | 10 nM |
| O=C(NCc1ccccc1Cl)c1ccc2c(c1)N=C(C1CCCCC1)c1ccccc1S2 [drawing 1491] | – | 10 nM |
| O=C(NCCc1ccc(Cl)cc1)c1ccc2c(c1)N=C(N1CCC(F)(F)CC1)c1ccccc1S2 [drawing 1492] | – | 63.1 nM |

| SMILES | Binding rat Inh % | Ki |
| --- | --- | --- |
| CC(NC(=O)c1ccc2c(c1)N=C(c1ccc(Cl)cc1)c1ccccc1S2)c1ccccc1 (stereo not drawn) [drawing 1493] | – | 63.1 nM |
| O=C(NN1CCCCC1)c1ccc2c(c1)N=C(c1ccc(F)cn1)c1ccccc1S2 [drawing 1494] | 94% | 63.1 nM |
| C[C@@H]1CCC[C@H](C)N1NC(=O)c1ccc2c(c1)N=C(c1ccccc1F)c1ccccc1S2 [drawing 1495] | 78% | 63.1 nM |
| CN1c2ccc(C(=O)NCc3ccc(F)cc3)cc2N=C(c2ccc(F)cc2)c2ccccc21 [drawing 1496] | 83% | 63.1 nM |
| O=C(NCCc1ccncc1)c1ccc2c(c1)N=C(c1ccc(Cl)c(Cl)c1)c1ccccc1S2 [drawing 1497] | 123% | 10 nM |
| CCCCNC(=O)c1ccc2c(c1)N=C(c1cccc(F)c1)c1ccccc1S2 [drawing 1498] | 82% | 10 nM |
| O=C(NCCc1cccc(Cl)c1)c1ccc2c(c1)N=C(C1CCCCC1)c1ccccc1S2 [drawing 1499] | – | 10 nM |
| CCCCNC(=O)c1ccc2c(c1)N=C(c1ccc(Cl)cc1)c1cc(F)ccc1S2 [drawing 1500] | 90% | 10 nM |
| CCCCNC(=O)c1ccc2c(c1)N=C(c1ccc(Cl)cn1)c1ccccc1S2 [drawing 1501] | 98% | 10 nM |
| O=C(NN1CCCC1)c1ccc2c(c1)N=C(c1ccc(Cl)cc1)c1ccccc1S2 [drawing 1502] | 63% | 63.1 nM |
| CCOCCNC(=O)c1ccc2c(c1)N=C(c1ccc(Cl)cc1)c1ccccc1S2 [drawing 1504] | 71% | 79.4 nM |
| O=C(NNCc1ccccc1)c1ccc2c(c1)N=C(c1cccc(Br)c1)c1ccccc1S2 [drawing 1505] | 66% | 79.4 nM |
| CC(C)CNC(=O)c1ccc2c(c1)N=C(c1ccc(Cl)cn1)c1ccc(Cl)cc1S2 [drawing 1506] | 90% | 79.4 nM |
| Cc1ccsc1C1=Nc2cc(C(=O)NN3CCCCCC3)ccc2Sc2ccccc21 [drawing 1507] | 76% | 10 nM |
| COc1ccc(C2=Nc3cc(C(=O)NCC(C)C)ccc3Sc3ccccc32)cc1 [drawing 1508] | 79% | 10 nM |
| CC(C)CCNC(=O)c1ccc2c(c1)N=C(c1ccccc1F)c1ccccc1S2 [drawing 1509] | 85% | 10 nM |
| O=C(NCc1cccc(Cl)c1)c1ccc2c(c1)N=C(c1ccccc1F)c1ccccc1S2 [drawing 1510] | – | 10 nM |
| O=C(NCc1ccncc1)c1ccc2c(c1)N=C(c1cccc(Br)c1)c1ccccc1S2 [drawing 1511] | 76% | 79.4 nM |
| CCONC(=O)c1ccc2c(c1)N=C(c1ccc(Cl)c(Cl)c1)c1ccccc1S2 [drawing 1512] | 73% | 79.4 nM |
| CC(CNC(=O)c1ccc2c(c1)N=C(N1CCCCC1)c1cc(F)ccc1S2)c1ccccc1 (stereo not drawn) [drawing 1513] | – | 79.4 nM |
| O=C(NCc1ccc(Cl)cc1Cl)c1ccc2c(c1)N=C(N1CCCCC1)c1ccccc1S2 [drawing 1514] | – | 79.4 nM |
| C[C@@H]1CCC[C@H](C)N1NC(=O)c1ccc2c(c1)N=C(c1cccc(Cl)c1)c1ccccc1S2 [drawing 1526] | 73% | 10 nM |
| Cc1ccsc1C1=Nc2cc(C(=O)NN3[C@H](C)CCC[C@@H]3C)ccc2Sc2ccccc21 [drawing 1530] | 65% | 79.4 nM |
| O=C(NC1CCCCC1)c1ccc2c(c1)N=C(c1ccccn1)c1ccccc1S2 [drawing 1537] | 77% | 100 nM |

Continued, values first:

| Binding rat Inh % | Ki | SMILES |
| --- | --- | --- |
| 96% | 10 nM | CCCCNC(=O)c1ccc2c(c1)N=C(c1ccc(Cl)s1)c1cc(F)ccc1S2 [drawing 1515] |
| 98% | 10 nM | Cc1ccsc1C1=Nc2cc(C(=O)NCC(C)C)ccc2Sc2ccccc21 [drawing 1516] |
| – | 10 nM | CCOC(=O)N1CCC(NC(=O)c2ccc3c(c2)N=C(C2CCCCC2)c2ccccc2S3)CC1 [drawing 1517] |
| 96% | 10 nM | O=C(NC1CCCCC1)c1ccc2c(c1)N=C(c1ccc(Cl)cc1)c1ccccc1S2 [drawing 1518] |
| 79% | 79.4 nM | O=C(NNC(=O)c1ccc2c(c1)N=C(c1ccc(F)cc1)c1ccccc1S2)c1ccccc1 [drawing 1519] |
| 93% | 79.4 nM | Cc1ccsc1C1=Nc2cc(C(=O)NCCc3cccnc3)ccc2Sc2ccccc21 [drawing 1521] |
| 72% | 79.4 nM | O=C(NN1CCCCCC1)c1ccc2c(c1)N=C(c1ccc(Cl)cc1Cl)c1ccccc1S2 [drawing 1522] |
| – | 10 nM | O=C(NCc1cccc(Cl)c1)c1ccc2c(c1)N=C(N1CCC(F)CC1)c1ccccc1S2 [drawing 1523] |
| – | 10 nM | CC(CNC(=O)c1ccc2c(c1)N=C(c1ccc(Cl)cc1)c1cc(F)ccc1S2)c1ccccc1 (stereo not drawn) [drawing 1524] |
| 86% | 10 nM | CC(C)CNC(=O)c1ccc2c(c1)N=C(c1ccc(Cl)cc1)c1ccc(Cl)cc1S2 [drawing 1525] |
| 108% | 79.4 nM | CCCCNC(=O)c1ccc2c(c1)N=C(c1ccccn1)c1ccccc1S2 [drawing 1527] |
| 77% | 79.4 nM | CC(C)NC(=O)c1ccc2c(c1)N=C(c1cccc(F)c1)c1ccccc1S2 [drawing 1528] |
| – | 79.4 nM | CCCC1=Nc2cc(C(=O)NCc3ccc(F)cc3)ccc2Sc2ccccc21 [drawing 1529] |
| 72% | 10 nM | Cc1ccsc1C1=Nc2cc(C(=O)NC3CCCCC3)ccc2Sc2ccccc21 [drawing 1531] |
| 82% | 10 nM | CCCCNC(=O)c1ccc2c(c1)N=C(c1ccc(OC)cc1)c1ccccc1S2 [drawing 1532] |
| – | 10 nM | O=C(NCCCc1ccccc1)c1ccc2c(c1)N=C(N1CCCCC1)c1ccccc1S2 [drawing 1533] |
| 88% | 12.6 nM | CCCCNC(=O)c1cnc2c(n1)N=C(c1ccccc1)c1ccccc1S2 [drawing 1534] |
| 68% | 79.4 nM | COc1ccc(C2=Nc3cc(C(=O)NNC(=O)c4ccccc4)ccc3Sc3ccccc32)cc1 [drawing 1535] |
| – | 79.4 nM | CCCC1=Nc2cc(C(=O)NCCc3ccc(OC)cc3OC)ccc2Sc2ccccc21 [drawing 1536] |
| 65% | 100 nM | N#Cc1ccc(C2=Nc3cc(C(=O)NNCc4ccccc4)ccc3Sc3ccccc32)cc1 [drawing 1538] |
